Holding throughout (assay type): biochemical
For one experiment, the target named is Yes (h) (Homo sapiens, UniProt P07947). Nature of the experiment: Yes human kinase assay (glass-fiber filter). As to conditions: test concentration of 10^−6M; for inhibition at 1 µM: read-out: C11 score (inhibition of Yes human). An outline of the steps:
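Yes (h) (5-10 mU) with 0.1 mg/ml poly(Glu, Tyr) 4:1 in 8 mM MOPS pH 7.0, 0.2 mM EDTA, 10 mM MgAcetate and [γ-^33P-ATP], 40 minutes at room temperature. Stopped with phosphoric acid; substrate-bound ^33P counted on glass-fiber filter by scintillation.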

The next experiment deals with GSK3B (h) (Homo sapiens, UniProt P49841). Briefly: GSK3β human kinase assay (glass-fiber filter). As to conditions: test concentration of 10^−6M; for inhibition at 1 µM: read-out: C8 score (inhibition of GSK3β human). An outline of the steps: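 Human GSK3β (5-10 mU) with 20 μM phospho GS2 peptide, [γ-^33P]ATP, 8 mM MOPS pH 7.0, 10 mM Mg acetate; 40 min at room temperature. Stopped with phosphoric acid; substrate phosphorylation read as filter-bound radioactivity by scintillation counting.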
GSK3B (h), sequence (P49841 whole entry): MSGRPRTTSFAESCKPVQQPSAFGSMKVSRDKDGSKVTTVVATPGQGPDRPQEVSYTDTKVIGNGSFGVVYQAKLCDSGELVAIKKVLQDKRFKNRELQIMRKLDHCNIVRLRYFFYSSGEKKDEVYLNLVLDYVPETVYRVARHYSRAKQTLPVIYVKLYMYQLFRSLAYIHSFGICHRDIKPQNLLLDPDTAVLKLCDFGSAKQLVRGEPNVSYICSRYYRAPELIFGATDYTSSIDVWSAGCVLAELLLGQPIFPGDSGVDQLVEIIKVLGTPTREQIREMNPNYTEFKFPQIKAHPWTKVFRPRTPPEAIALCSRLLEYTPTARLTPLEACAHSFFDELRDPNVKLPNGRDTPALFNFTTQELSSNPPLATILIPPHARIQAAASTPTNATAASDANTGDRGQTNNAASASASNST

In a further experiment the target is Lyn (h) (Homo sapiens, UniProt P07948). Briefly: Lyn human kinase assay (glass-fiber filter). The note with it: test concentration of 10^−6M; for inhibition at 1 µM: read-out: C10 score (inhibition of Lyn human). Summed up:
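Human Lyn (5-10 mU) phosphorylating poly(Glu,Tyr) 4:1 at 0.1 mg/ml with [γ-33P]ATP (concentration as required) in 50 mM Tris pH 7.5, 10 mM Mg acetate, 40 min at room temperature. Stopped with phosphoric acid; substrate-bound radioactivity counted on glass-fibre filter.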

For another experiment, the target named is Flt3 (h) (Homo sapiens, UniProt P36888). Nature of the experiment: Flt3 human kinase assay (glass-fiber filter). The note with it: test concentration of 10^−6M; for inhibition at 1 µM: read-out: C6 score (inhibition of Flt3 human). An outline of the steps:
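Human Flt3 (5-10 mU) with 50 μM peptide substrate in 8 mM MOPS pH 7.0, 0.2 mM EDTA, 10 mM Mg acetate and [γ-33P]ATP (concentration as required), 40 min at room temperature. Reaction stopped with phosphoric acid; substrate 33P incorporation counted on P30 glass-fiber filter.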

Data on eleven compounds can be found in patent US8148388B2, “2,4 (4,6) pyrimidine derivatives” (Janssen Pharmaceutica, N.V., priority 2004, dated 2012).

Bounds are passed on as bounds.

Flt3 (h), sequence (P36888 27-993): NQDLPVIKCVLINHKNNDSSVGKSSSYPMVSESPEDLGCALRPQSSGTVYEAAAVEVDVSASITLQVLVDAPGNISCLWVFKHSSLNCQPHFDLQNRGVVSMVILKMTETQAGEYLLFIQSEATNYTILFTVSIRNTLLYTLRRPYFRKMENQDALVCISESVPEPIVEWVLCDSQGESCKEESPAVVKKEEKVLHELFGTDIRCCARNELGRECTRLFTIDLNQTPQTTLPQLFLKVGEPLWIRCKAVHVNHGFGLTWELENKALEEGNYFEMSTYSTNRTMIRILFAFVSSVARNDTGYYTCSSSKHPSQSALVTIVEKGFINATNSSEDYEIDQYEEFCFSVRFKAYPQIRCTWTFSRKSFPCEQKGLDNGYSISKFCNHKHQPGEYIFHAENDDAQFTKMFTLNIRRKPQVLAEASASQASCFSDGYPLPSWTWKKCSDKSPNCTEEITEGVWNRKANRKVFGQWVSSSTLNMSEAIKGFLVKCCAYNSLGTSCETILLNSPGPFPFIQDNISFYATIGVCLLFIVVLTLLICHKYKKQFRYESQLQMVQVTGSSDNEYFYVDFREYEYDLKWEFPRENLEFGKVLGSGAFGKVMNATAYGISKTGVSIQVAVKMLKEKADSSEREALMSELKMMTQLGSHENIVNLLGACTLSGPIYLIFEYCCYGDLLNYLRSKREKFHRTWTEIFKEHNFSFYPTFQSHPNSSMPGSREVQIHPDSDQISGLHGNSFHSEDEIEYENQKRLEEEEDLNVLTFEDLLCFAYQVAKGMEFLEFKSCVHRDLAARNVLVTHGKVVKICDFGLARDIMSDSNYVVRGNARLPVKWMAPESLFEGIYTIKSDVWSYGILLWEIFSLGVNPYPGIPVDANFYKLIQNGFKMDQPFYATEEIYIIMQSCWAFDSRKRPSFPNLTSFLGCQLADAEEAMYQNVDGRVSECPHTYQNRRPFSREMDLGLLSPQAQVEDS
Lyn (h), sequence (P07948 whole entry): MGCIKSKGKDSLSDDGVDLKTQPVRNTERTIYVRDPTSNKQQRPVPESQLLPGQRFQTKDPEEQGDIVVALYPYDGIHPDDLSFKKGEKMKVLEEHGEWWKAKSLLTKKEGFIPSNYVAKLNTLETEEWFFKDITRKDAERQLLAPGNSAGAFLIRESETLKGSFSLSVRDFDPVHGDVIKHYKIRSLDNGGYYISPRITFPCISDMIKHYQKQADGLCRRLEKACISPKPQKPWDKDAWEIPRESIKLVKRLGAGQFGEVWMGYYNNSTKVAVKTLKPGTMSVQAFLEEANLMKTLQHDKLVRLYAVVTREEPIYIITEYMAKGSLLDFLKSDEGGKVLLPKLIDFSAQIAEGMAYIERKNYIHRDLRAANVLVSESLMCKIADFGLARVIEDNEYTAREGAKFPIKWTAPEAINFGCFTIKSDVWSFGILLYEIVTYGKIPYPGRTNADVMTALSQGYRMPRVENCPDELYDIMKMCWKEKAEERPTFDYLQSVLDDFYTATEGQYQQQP
Yes (h), sequence (P07947 whole entry): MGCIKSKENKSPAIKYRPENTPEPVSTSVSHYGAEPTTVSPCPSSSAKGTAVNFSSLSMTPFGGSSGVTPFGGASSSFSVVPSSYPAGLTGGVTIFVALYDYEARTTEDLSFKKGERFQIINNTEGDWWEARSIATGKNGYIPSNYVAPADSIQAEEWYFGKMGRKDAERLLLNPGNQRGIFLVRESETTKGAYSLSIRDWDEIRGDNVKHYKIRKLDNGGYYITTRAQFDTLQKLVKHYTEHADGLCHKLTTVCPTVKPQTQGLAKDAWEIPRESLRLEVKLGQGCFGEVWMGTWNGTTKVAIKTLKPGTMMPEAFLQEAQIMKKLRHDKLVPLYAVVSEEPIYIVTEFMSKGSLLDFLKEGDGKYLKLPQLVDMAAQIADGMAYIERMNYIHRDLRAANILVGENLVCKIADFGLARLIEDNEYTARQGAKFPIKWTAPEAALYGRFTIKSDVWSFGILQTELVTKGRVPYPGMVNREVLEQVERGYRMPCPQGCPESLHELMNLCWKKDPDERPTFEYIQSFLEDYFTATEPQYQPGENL

In the case of `COc1ccc2cc1OCCCCCCCOc1ccc(Br)cc1Nc1cc(ncn1)N2` [Compound 37, 1H,7H-2,6: 12,8-dimetheno-14H-13,21,1,3,5,7-benzodioxatetraazacyclotricosine, 24-bromo-15,16,17,18,19,20-hexahydro-11-methoxy-], the “C11 score (inhibition of Yes human)” value at Yes (h) is 1 (Score 1=10-30% inhibition). Besides, the “C8 score (inhibition of GSK3β human)” value at GSK3B (h) is on record as 1 (Score 1=10-30% inhibition). Moreover, the “C10 score (inhibition of Lyn human)” value at Lyn (h) was 2 (Score 2=30-60% inhibition).

Turning to `COc1ccc2cc1OCCNC(=O)CNC(=O)Cc1ccc(Cl)cc1Nc1cc(ncn1)N2` [Compound 103, 1H,7H-6,2:12,8-dimetheno-13,1,3,5,7,16,19-benzoxahexaazacyclotricosine-17,20(14H)-dione, 24-chloro-15,16,18,19,21-pentahydro-11-methoxy-], the inhibition at 1 µM at Yes (h) is over 80%; at GSK3B (h), 10 to 30%; at Lyn (h), over 80%.

As for `COc1ccc2cc1OCCCNC(=O)C(C)(C)NC(=O)Cc1ccc(Cl)cc1Nc1cc(ncn1)N2` [Compound 105, 6,2:8,12-dimetheno-7H-13,1,3,5,7,17,20-benzoxahexaazacyclotetracosine-18,21-dione, 25-chloro-1,14,15,16,17,19,20,22-octahydro-11-methoxy-19,19-dimethyl-], the inhibition at 1 µM on Yes (h) was over 80%; at GSK3B (h), 10 to 30%; on Lyn (h), over 80%.

In the case of `N#Cc1cnc2nc1Nc1cccc(c1)OCCCNC(=O)COc1cccc(c1)N2` [Compound 28, 14,21-dioxa-2,4,8,18,28-pentaazatetracyclo[20.3.1.1~3,7~.1~9,13~]octacosa-1(26),3,5,7(28),9,11,13(27),22,24-nonaene-6-carbonitrile, 19-oxo-], the inhibition at 1 µM on Yes (h) fell in the range of 60 to 80%; at GSK3B (h), 60 to 80%; at Flt3 (h) it was 60 to 80%; on Lyn (h), 10 to 30%.

In the case of “12,8-metheno-6,2-nitrilo-7H-13,1,5,7,16,19-benzoxapentaazacyclodocosine-3-carbonitrile, 23-chloro-1,14,15,16,17,18,19,20-octahydro-11-methoxy-19-methyl-17-oxo- [Compound 32]”, at Yes (h), the “C11 score (inhibition of Yes human)” value is listed as 4 (Score 4=>80% inhibition). Further, the “C8 score (inhibition of GSK3β human)” value on GSK3B (h) was 4 (Score 4=>80% inhibition). Moreover, the “C6 score (inhibition of Flt3 human)” value on Flt3 (h) was 4 (Score 4=>80% inhibition). The “C10 score (inhibition of Lyn human)” value at Lyn (h) was 4 (Score 4=>80% inhibition).

With `N#Cc1cnc2nc1Nc1cccc(c1)OCC(=O)NCCCCOc1cccc(c1)N2` [Compound 26, 14,22-dioxa-2,4,8,17,29-pentaazatetracyclo[21.3.1.1~3,7~.1~9,13~]nonacosa-1(27),3,5,7(29),9,11,13(28),23,25-nonaene-6-carbonitrile, 16-oxo-], the inhibition at 1 µM lay within 10 to 30% at Yes (h), 10 to 30% on GSK3B (h), 60 to 80% at Flt3 (h) and 30 to 60% at Lyn (h).

As to `COc1ccc2c(c1)OCCCCCCOc1ccc(Cl)cc1Nc1cc(ncn1)N2` [Compound 34, 11H-6,10-metheno-5H-dibenzo[b,k][1,13,4,6,8,10]dioxatetraazacyclononadecine, 13-chloro-17,18,19,20,21,22-hexahydro-2-methoxy-], the inhibition at 1 µM at Yes (h), on Flt3 (h) and on Lyn (h) was 10 to 30% throughout.

In the case of `COc1ccc2cc1OCCCCCCOc1ccc(Br)cc1Nc1cc(ncn1)N2` [Compound 36, 1H,7H-2,6: 12,8-dimetheno-13,20,1,3,5,7-benzodioxatetraazacyclodocosine, 23-bromo-14,15,16,17,18,19-hexahydro-11-methoxy-], at Yes (h), the “C11 score (inhibition of Yes human)” value is 1 (Score 1=10-30% inhibition). Moreover, the “C6 score (inhibition of Flt3 human)” value on Flt3 (h) is given as 1 (Score 1=10-30% inhibition). The “C10 score (inhibition of Lyn human)” value on Lyn (h) was 3 (Score 3=60-80% inhibition).

Turning to `CC1(C)NC(=O)Cc2ccc(Cl)cc2Nc2cc(ncn2)Nc2ccc(OCCCN3CCOCC3)c(c2)OCCNC1=O` [Compound 106, 1H,7H-6,2:8,12-dimetheno-13,1,3,5,7,16,19-benzoxahexaazacyclotricosine-17,20(14H)-dione, 24-chloro-15,16,18,19,21-pentahydro-18,18-dimethyl-11-[3-(4-morpholinyl)propoxy]-], the inhibition at 1 µM on Yes (h) was over 80%; at GSK3B (h), 10 to 30%; on Flt3 (h), 10 to 30%; on Lyn (h), over 80%.

Turning to `N#Cc1cnc2nc1Nc1cccc(c1)OCC(=O)NCCCOc1cccc(c1)N2` [Compound 25, 14,21-dioxa-2,4,8,17,28-pentaazatetracyclo[20.3.1.1~3,7~.1~9,13~]octacosa-1(26),3,5,7(28),9,11,13(27),22,24-nonaene-6-carbonitrile, 16-oxo-], the inhibition at 1 µM at Yes (h) is 10 to 30%; at GSK3B (h), 30 to 60%; on Flt3 (h), over 80%; on Lyn (h), 10 to 30%.

Turning to “1H,7H-2,6: 12,8-dimetheno-14H-13,19,1,3,5,7-benzodioxatetraazacycloheneicosine, 22-bromo-15,16,17,18-tetrahydro-11-methoxy- [Compound 35]”, the “C11 score (inhibition of Yes human)” value at Yes (h) is on record as 3 (Score 3=60-80% inhibition). The “C8 score (inhibition of GSK3β human)” value on GSK3B (h) was 1 (Score 1=10-30% inhibition). Also, the “C6 score (inhibition of Flt3 human)” value on Flt3 (h) is 2 (Score 2=30-60% inhibition). The “C10 score (inhibition of Lyn human)” value at Lyn (h) is on record as 2 (Score 2=30-60% inhibition).

A word on the inhibition: it is the drop in the measured response relative to a control, in per cent.
